This is an account of results in patent US20190175671A1, “MICRORNA 22 REGULATORS COMPOSITIONS AND METHODS AND USES THEREOF” (priority 2017, published 2019).

Assay [1] relates to Interferon Regulatory Factor 9. Particulars: cited from earlier work.
The test system of another assay is MIR22HG. Description: Expression of long non-coding RNA MIR22HG.
For another assay, the system named is microRNA 22. The conditions noted are these: pancreatic cancer cells; cited from earlier work.

For the compound `CC(=O)Nc1ccc(O)cc1` [Acetaminophen], the “effect on IRF9” value in assay [1] is “inhibitor”.
Turning to `CC(NCCC(c1ccccc1)c1ccccc1)c1ccccc1` (stereo not drawn) [Fendiline], the “expression of lncRNA MIR22HG” value in the assay on MIR22HG is listed as “upregulates”.
On to `COc1cc(/C=C/C(=O)CC(=O)/C=C/c2ccc(O)c(OC)c2)ccc1O` [curcumin, diferuloylmethane], for which the “expression of microRNA 22” value with microRNA 22 is recorded as “upregulation”.
